Laboratory results taken from patent US8791130B2, “Aminopyrimidine derivatives as LRRK2 modulators” (Genentech, Inc., priority 2011, dated 2014).

Target: LRRK2 (Homo sapiens (Human), UniProt Q5S007, G2019S)
Experiment: In Vitro LRRK2 LabChip Assay (LRRK2 Ki)
Type: biochemical
Description: In Vitro LRRK2 LabChip Assay This assay was used to determine a compound's potency in inhibiting activity of LRRK2 by determining, Kiapp, IC50, or percent inhibition values. In a polypropylene plate, LRRK2, fluorescently-labeled peptide substrate, ATP and test compound were incubated together. Using a LabChip 3000 (Caliper Life Sciences), after the reaction the substrate was separated by capillary electrophoresis into two populations: phosphorylated and unphosphorylated. The relative amounts of each were quantitated by fluorescence intensity. LRRK2 Ki was determined according to the equation: […]))). Ki values in Table 4 and elsewhere herein are shown in μM. […] Substrate: 5[…] Non-binding plate: 384 well clear V-bottom polypropylene plates (Greiner cat #781280). ATP: 10 mM ATP (Cell Signaling cat #9804). Triton X-100: Triton X-100. Brij-35: Brij-35 (Pierce cat #20150). […] DMSO: DMSO (Sigma cat #34869-100 ML). […] Compound Plate Preparation: For serial dilutions, 34.6 μl DMSO was added to columns 3-24. For the assay controls, 37.5 μl DMSO was added to columns 1 and 2 of rows A and […]-028831 (Staurosporine) was added to columns 1 and 2, row B. […] A Precision instrument was used to perform 1:3.16 serial dilutions (“PLK_BM_serial_halflog”). ATP Preparation: ATP was diluted to 282.1 μM in Complete Kinase Buffer (final concentration was 130 μM). […] Assay Procedure: To a 50 μl polypropylene plate, 5 μl/well buffer/substrate was added by hand to Blank wells. A Biomek FX was used to start the kinase reaction (“PLK SAR 23 ATP”). […] 5 μl/well kinase/substrate in Assay Plate; The plate was incubated for 2 hours in the dark. Biomek FX was used to stop the kinase reaction (“PLK Stop”), and 10 μl/well Stop solution was added to the Assay Plate.

Sequence of LRRK2 (Q5S007 970-2527 G2019S): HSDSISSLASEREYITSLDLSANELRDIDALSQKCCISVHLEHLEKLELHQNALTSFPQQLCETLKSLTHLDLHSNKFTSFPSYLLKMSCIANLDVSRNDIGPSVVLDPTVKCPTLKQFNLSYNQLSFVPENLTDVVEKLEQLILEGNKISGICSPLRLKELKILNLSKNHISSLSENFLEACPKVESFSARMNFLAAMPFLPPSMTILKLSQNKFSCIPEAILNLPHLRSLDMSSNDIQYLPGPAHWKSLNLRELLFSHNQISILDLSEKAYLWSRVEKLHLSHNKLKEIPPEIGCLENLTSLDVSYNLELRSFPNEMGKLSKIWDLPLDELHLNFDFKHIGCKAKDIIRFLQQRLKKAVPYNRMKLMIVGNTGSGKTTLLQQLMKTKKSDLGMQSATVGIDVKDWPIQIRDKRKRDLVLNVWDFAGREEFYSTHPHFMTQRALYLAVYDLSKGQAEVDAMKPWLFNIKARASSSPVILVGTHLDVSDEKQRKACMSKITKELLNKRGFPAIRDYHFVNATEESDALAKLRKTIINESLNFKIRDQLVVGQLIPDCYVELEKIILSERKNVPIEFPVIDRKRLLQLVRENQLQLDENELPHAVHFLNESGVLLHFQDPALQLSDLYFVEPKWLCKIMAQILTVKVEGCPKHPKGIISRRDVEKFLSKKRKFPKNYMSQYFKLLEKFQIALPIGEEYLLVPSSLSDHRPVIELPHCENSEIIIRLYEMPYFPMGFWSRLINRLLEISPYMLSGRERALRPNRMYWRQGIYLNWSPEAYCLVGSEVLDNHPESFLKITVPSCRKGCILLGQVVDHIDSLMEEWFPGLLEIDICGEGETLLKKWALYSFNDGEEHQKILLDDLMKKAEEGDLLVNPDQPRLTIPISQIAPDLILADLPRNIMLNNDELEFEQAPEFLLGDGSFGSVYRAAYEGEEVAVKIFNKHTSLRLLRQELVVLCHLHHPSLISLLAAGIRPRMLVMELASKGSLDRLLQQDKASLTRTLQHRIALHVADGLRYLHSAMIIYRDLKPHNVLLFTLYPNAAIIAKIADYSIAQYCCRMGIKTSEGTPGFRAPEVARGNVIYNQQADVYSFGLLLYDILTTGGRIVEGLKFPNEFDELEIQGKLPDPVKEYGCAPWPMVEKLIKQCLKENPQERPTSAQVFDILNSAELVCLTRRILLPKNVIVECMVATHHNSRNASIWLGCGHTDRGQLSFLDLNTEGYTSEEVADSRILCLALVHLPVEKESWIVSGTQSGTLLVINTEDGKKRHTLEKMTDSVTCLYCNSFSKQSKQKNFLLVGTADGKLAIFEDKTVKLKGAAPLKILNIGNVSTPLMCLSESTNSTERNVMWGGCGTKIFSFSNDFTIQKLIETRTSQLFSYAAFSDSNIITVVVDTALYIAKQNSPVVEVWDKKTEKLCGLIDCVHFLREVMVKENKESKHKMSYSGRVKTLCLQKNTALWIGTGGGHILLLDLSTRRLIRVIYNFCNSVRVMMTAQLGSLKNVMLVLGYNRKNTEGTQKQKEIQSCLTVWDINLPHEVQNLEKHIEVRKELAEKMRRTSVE

Compound	Ki [nM]
CNc1nc(Nc2cc(F)c(-c3cnn(C4COC4)c3)cc2OC)ncc1C(F)(F)F [Compound 44, N2-(5-fluoro-2-methoxy-4-(1-(oxetan-3-yl)-1H-pyrazol-4-yl)phenyl)-N4-methyl-5-(trifluoromethyl) pyrimidine-2,4-diamine]	10
CNc1nc(Nc2ccc(-c3nnc(C)o3)cc2Cl)ncc1Cl [Compound 33, 5-chloro-N^2-(2-chloro-4-(5-methyl-1,3,4-oxadiazol-2-yl)phenyl)-N^4-methylpyrimidine-2,4-diamine]	30
CNc1nc(Nc2ccc(-c3nc(C)no3)cc2Cl)ncc1Cl [Compound 34, 5-chloro-N^2-(2-chloro-4-(3-methyl-1,2,4-oxadiazol-5-yl)phenyl)-N^4-methylpyrimidine-2,4-diamine]	80
CNc1nc(Nc2ccc(-n3nc(C)cc3COC)cc2OC)ncc1C(F)(F)F [Compound 48, N2-(2-methoxy-4-(5-(methoxymethyl)-3-methyl-1H-pyrazol-1-yl)phenyl)-N4-methyl-5-(trifluoromethyl) pyrimidine-2,4-diamine]	10
CNc1nc(Nc2ccc(-c3nnn(C)n3)cc2Cl)ncc1C(F)(F)F [Compound 3, N2-(2-chloro-4-(2-methyl-2H-tetrazol-5-yl)phenyl)-N4-methyl-5-(trifluoromethyl) pyrimidine-2,4-diamine]	18
CNc1nc(Nc2ccc(-c3nnnn3C)cc2OC)ncc1Cl [Compound 10, 5-chloro-N^2-(2-methoxy-4-(1-methyl-1H-tetrazol-5-yl)phenyl)-N^4-methylpyrimidine-2,4-diamine]	7
CNc1nc(Nc2cc(OC)c(-c3nccn3C)cc2Cl)ncc1C(F)(F)F [Compound 19, N^2-(2-chloro-5-methoxy-4-(1-methyl-1H-imidazol-2-yl)phenyl)-N^4-methyl-5-(trifluoromethyl) pyrimidine-2,4-diamine]	3
CNc1nc(Nc2ccc(-c3nnnn3C)cc2Cl)ncc1C(F)(F)F [Compound 2, N2-(2-chloro-4-(1-methyl-1H-tetrazol-5-yl)phenyl)-N4-methyl-5-(trifluoromethyl) pyrimidine-2,4-diamine]	7
CNc1nc(Nc2ccc(-c3nccn3C)cc2OC)ncc1Cl [Compound 15, 5-chloro-N^2-(2-methoxy-4-(1-methyl-1H-imidazol-2-yl)phenyl)-N^4-methylpyrimidine-2,4-diamine]	7
CCNc1nc(Nc2cc(F)c(-c3nnc(C)o3)cc2OC)ncc1C(F)(F)F [Compound 29, N^4-ethyl-N^2-(5-fluoro-2-methoxy-4-(5-methyl-1,3,4-oxadiazol-2-yl)phenyl)-5-(trifluoromethyl) pyrimidine-2,4-diamine]	7
CNc1nc(Nc2cc(OC)c(-c3ccnn3C)cc2Cl)ncc1C(F)(F)F [Compound 28, N^2-(2-chloro-5-methoxy-4-(1-methyl-1H-pyrazol-5-yl)phenyl)-N^4-methyl-5-(trifluoromethyl) pyrimidine-2,4-diamine]	5
CNc1nc(Nc2cc(F)c(-n3nnnc3COC)cc2OC)ncc1C(F)(F)F [Compound 49, N2-(5-fluoro-2-methoxy-4-(5-(methoxymethyl)-1H-tetrazol-1-yl)phenyl)-N4-methyl-5-(trifluoromethyl) pyrimidine-2,4-diamine]	4
CNc1nc(Nc2ccc(-c3nnn(C)n3)cc2OC)ncc1C(F)(F)F [Compound 18, N^2-(2-methoxy-4-(2-methyl-2H-tetrazol-5-yl)phenyl)-N^4-methyl-5-(trifluoromethyl) pyrimidine-2,4-diamine]	10
CNc1nc(Nc2cc(OC)c(-c3cnnn3C)cc2Cl)ncc1C(F)(F)F [Compound 11, N^2-(2-chloro-5-methoxy-4-(1-methyl-1H-1,2,3-triazol-5-yl)phenyl)-N^4-methyl-5-(trifluoromethyl) pyrimidine-2,4-diamine]	4
CNc1nc(Nc2cc(OC)c(-c3nnc(C)o3)cc2Cl)ncc1Cl [Compound 37, 5-chloro-N^2-(2-chloro-5-methoxy-4-(5-methyl-1,3,4-oxadiazol-2-yl)phenyl)-N^4-methylpyrimidine-2,4-diamine]	12
CNc1nc(Nc2ccc(-c3nnn[nH]3)cc2Cl)ncc1C(F)(F)F [Compound 1, N2-(2-chloro-4-(2H-tetrazol-5-yl)phenyl)-N4-methyl-5-(trifluoromethyl) pyrimidine-2,4-diamine]	3
CNc1nc(Nc2ccc(-c3nnnn3C)cc2OC)ncc1C(F)(F)F [Compound 20, N^2-(2-methoxy-4-(1-methyl-1H-tetrazol-5-yl)phenyl)-N^4-methyl-5-(trifluoromethyl) pyrimidine-2,4-diamine]	3

Next, values leading:

Ki [nM]	Compound
3	CNc1nc(Nc2ccc(-c3cnnn3C)cc2OC)ncc1Cl [Compound 23, 5-chloro-N^2-(2-methoxy-4-(1-methyl-1H-1,2,3-triazol-5-yl)phenyl)-N^4-methylpyrimidine-2,4-diamine]
3	CNc1nc(Nc2cc(OC)c(-c3c(C)nn(C)c3C)cc2Cl)ncc1C(F)(F)F [Compound 24, N^2-(2-chloro-5-methoxy-4-(1,3,5-trimethyl-1H-pyrazol-4-yl)phenyl)-N^4-methyl-5-(trifluoromethyl) pyrimidine-2,4-diamine]
2	CNc1nc(Nc2ccc(-c3cncn3C)cc2OC)ncc1C(F)(F)F [Compound 8]
1	CNc1nc(Nc2ccc(-c3c(C)noc3C)cc2OC)ncc1C(F)(F)F [Compound 26, N^2-(4-(3,5-dimethylisoxazol-4-yl)-2-methoxyphenyl)-N^4-methyl-5-(trifluoromethyl) pyrimidine-2,4-diamine]
1	CNc1nc(Nc2ccc(-c3ccnn3C)cc2OC)ncc1C(F)(F)F [Compound 25, N^2-(2-methoxy-4-(1-methyl-1H-pyrazol-5-yl)phenyl)-N^4-methyl-5-(trifluoromethyl) pyrimidine-2,4-diamine]
1	CNc1nc(Nc2cc(F)c(-c3cnn(C)c3C(=O)N(C)C)cc2OC)ncc1C(F)(F)F [Compound 41, 4-(2-fluoro-5-methoxy-4-(4-(methylamino)-5-(trifluoromethyl)pyrimidin-2-ylamino)phenyl)-N,N,1-trimethyl-1H-pyrazole-5-carboxamide]
2	CNc1nc(Nc2cc(F)c(-c3cnnn3C)cc2OC)ncc1C(F)(F)F [Compound 43, N2-(5-fluoro-2-methoxy-4-(1-methyl-1H-1,2,3-triazol-5-yl)phenyl)-N4-methyl-5-(trifluoromethyl) pyrimidine-2,4-diamine]
2	CNc1nc(Nc2ccc(-n3cnnn3)cc2OC)ncc1C(F)(F)F [Compound 27, N^2-(2-methoxy-4-(1H-tetrazol-1-yl)phenyl)-N^4-methyl-5-(trifluoromethyl) pyrimidine-2,4-diamine]
2	CNc1nc(Nc2ccc(-c3cn(C)nc3C)cc2OC)ncc1C(F)(F)F [Compound 38, N2-(4-(1,3-dimethyl-1H-pyrazol-4-yl)-2-methoxyphenyl)-N4-methyl-5-(trifluoromethyl) pyrimidine-2,4-diamine]
2	CNc1nc(Nc2ccc(-c3cnnn3C)cc2OC)ncc1C(F)(F)F [Compound 17, N^2-(2-methoxy-4-(1-methyl-1H-1,2,3-triazol-5-yl)phenyl)-N^4-methyl-5-(trifluoromethyl) pyrimidine-2,4-diamine]
